Test results reported in patent EP4772634A1, “DOUBLE-STRANDED RNA TARGETING COAGULATION FACTOR XI” (Chia Tai Tianqing Pharmaceutical Group Co., Ltd., priority 2023, dated 2025).

Tests used:
[1] = system: human coagulation factor XI protein; assay: In vivo activity in human coagulation factor XI model mice (Experimental Example 3), plasma FXI protein by ELISA; conditions: humanized mice
Experimental: The humanized mice used in this experimental example were purchased from Cyagen Biosciences Co., Ltd. The humanized mice were randomly divided into groups, with 4 mice per group. The compound and PBS control (pH = 7.2) were administered to each group of mice, respectively. The day of the first administration was designated as day 0 of the experiment. The corresponding compound solutions were administered via a single subcutaneous injection based on animal body weight, at administration doses of 1 mg/kg and 5 mg/kg. PBS control mice were each administered PBS, with an administration volume of 10 mL/kg body weight. Orbital blood was collected before administration and on day 7, day 14, day 28, day 42, and day 63 after administration. Plasma was separated, and the content of the coagulation factor XI protein in the plasma was measured at each time point.
About 165 µL of blood was collected from the orbital veins for plasma collection. A 3.8% trisodium citrate anticoagulant was added to the whole blood in a volume ratio of 1:9 (anticoagulant:[…], v/v), and the mixture was centrifuged at 3000 rpm at 20 °C for 15 min to collect plasma. The content of the coagulation factor XI protein in the plasma obtained from the above groups of mice (test groups administered the compound and PBS control group) was measured using a Human Coagulation Factor XI ELISA kit (Sigma, Cat. No. RAB1385-1KT).
(§1) The coagulation factor XI protein inhibition rate was calculated according to the following equation: [formula]
Table 11 lists the measurement of FXI protein content in animal plasma before and on day 7, day 14, day 28, day 42, and day 63 after a single subcutaneous administration of siRNA ligand conjugates (TD01M01L01, TD02M01L01) at doses of 1 mg/kg and 5 mg/kg to humanized homozygous mice. […] Table 11. In vivo experimental design

[2] = system: human coagulation factor XI protein; assay: In vivo activity in AAV-FXI model mice, serum FXI protein by ELISA; conditions: AAV-FXI mice (C57BL/6 male), single subcutaneous 3 mg/kg
Experimental: 4-6 week old C57BL/6 male mice were injected via the tail vein with 1 × 10^11 vg of AAV8-FXI (WZ Biosciences). On day 28 after modeling, mice with an hFXI protein content of greater than 100 ng/mL were selected. The mice were randomly divided into groups based on body weight and were injected with 3 mg/kg of the dsRNA ligand conjugate of the present application (amount calculated based on siRNA only) on day 0. Orbital blood was collected on day 7, day 14, day 35, and day 56. Serum was separated, and the content of the coagulation factor XI protein in the serum at each time point was measured using a Human Coagulation Factor XI ELISA kit (Thermo, Cat. No. EH118RB).
as §1
The content of the coagulation factor XI protein in animal serum was measured before and on day 7, day 14, day 35, and day 56 after a single subcutaneous administration of the dsRNA ligand conjugate of the present application at a dose of 3 mg/kg to AAV-FXI mice (see Table 15). […] Table 15. In vivo experimental design

coagulation factor XI = assay: In vivo activity in cynomolgus monkeys, plasma FXI activity; conditions: cynomolgus monkey plasma, subcutaneous once, 4.2 mg/kg (first row, dose by order of Table 17)
Experimental: On day 7 before administration, female cynomolgus monkeys weighing 2-4 kg were fasted overnight, and about 1 mL of blood was collected from the femoral vein. Plasma was collected by centrifugation. FXI protein (Human Coagulation Factor XI ELISAkit, Thermo, Cat. No. EH118RB), FXI activity (coagulation factor XI assay kit, Stago, Cat. No. 00723), and APTT (activated partial thromboplastin time assay kit, Stago, Cat. No. 00595) were measured. The monkeys were evenly divided into groups based on these indicators. On day 0, the dsRNA ligand conjugates of the present application (TD02M02L01, etc.) were injected. On day 0, day 3, day 7, day 14, day 21, day 28, day 37, day 54, and day 68, plasma was collected to measure plasma FXI protein, FXI activity, and activated partial thromboplastin time (APTT).
The coagulation factor XI activity inhibition rate was calculated according to the following equation: [formula]
The content of the coagulation factor XI protein, the FXI activity, and the activated partial thromboplastin time in animal plasma were measured before and on day 0, day 3, day 7, day 14, day 21, day 28, day 37, day 54, and day 68 after the subcutaneous administration of the dsRNA ligand conjugates of the present application at doses of 4.2 mg/kg and 14 mg/kg to cynomolgus monkeys (Table 17). […] Table 17. In vivo experimental design

[3] = system: human coagulation factor XI protein; assay: In vivo activity in human coagulation factor XI model mice (Experimental Example 4), FXI protein by ELISA; conditions: female humanized homozygous mice, single subcutaneous 3 mg/kg
Experimental: The humanized mice used in this experimental example were purchased from Cyagen Biosciences Co., Ltd. The female humanized homozygous mice were randomly divided into groups, with 4 mice per group. The compound and PBS control (pH = 7.2) were administered to each group of mice, respectively. The day of the first administration was designated as day 0 of the experiment. The corresponding compound solutions were administered via a single subcutaneous injection based on animal body weight, at an administration dose of 3 mg/kg. PBS control mice were each administered PBS, with an administration volume of 10 mL/kg body weight. Orbital blood was collected before administration and on day 3, day 7, day 14, day 21, day 28, day 42, day 56, and day 70 after administration. Serum was separated, and the content of the coagulation factor XI protein in the serum at each time point was measured using a Human Coagulation Factor XI ELISA kit (Thermo, Batch No. 2350072722, Cat. No. EH118RB).
as §1
Table 13 lists the measurement of coagulation factor XI protein content in animal plasma before and on day 3, day 7, day 14, day 21, day 28, day 42, day 56, and day 70 after a single subcutaneous administration of siRNA ligand conjugates at a dose of 3 mg/kg to humanized homozygous mice. […] Table 13. In vivo experimental design

TD02M02L01: dsRNA ligand conjugate: TD02M02 with L01 (GalNAc) ligand at 3' end of sense strand SEQ ID NO 35; antisense SEQ ID NO 36 (sense GGATGATTTTCTTATATCA; antisense TGATATAAGAAAATCATCCTG; GalNAc L01 ligand at sense 3' end, 2'-OMe/2'-F, pattern not given here)
Relative inhibition rate (%) of FXI protein ([1]; single subcutaneous 1 mg/kg, D7): 66.7%
Relative inhibition rate (%) of FXI protein ([1]; single subcutaneous 1 mg/kg, D14): 70.2%
Relative inhibition rate (%) of FXI protein ([1]; single subcutaneous 1 mg/kg, D28): 58.6%
Relative inhibition rate (%) of FXI protein ([1]; single subcutaneous 1 mg/kg, D42): 70.5%
Relative inhibition rate (%) of FXI protein ([1]; single subcutaneous 1 mg/kg, D63): 47.0%
Relative inhibition rate (%) of FXI protein ([1]; single subcutaneous 5 mg/kg, D7): 91.5%
Relative inhibition rate (%) of FXI protein ([1]; single subcutaneous 5 mg/kg, D14): 93.5%
Relative inhibition rate (%) of FXI protein ([1]; single subcutaneous 5 mg/kg, D28): 88.4%
Relative inhibition rate (%) of FXI protein ([1]; single subcutaneous 5 mg/kg, D42): 86.9%
Relative inhibition rate (%) of FXI protein ([1]; single subcutaneous 5 mg/kg, D63): 66.3%
Relative inhibition rate (%) of FXI protein ([2]; D7): 96.3%
Relative inhibition rate (%) of FXI protein ([2]; D14): 97.3%
Relative inhibition rate (%) of FXI protein ([2]; D35): 86.0%
Relative inhibition rate (%) of FXI protein ([2]; D56): 57.4%
Relative inhibition rate (%) of FXI activity (coagulation factor XI; D3): 20.5%
Relative inhibition rate (%) of FXI activity (coagulation factor XI; D7): 66.0%
Relative inhibition rate (%) of FXI activity (coagulation factor XI; D14): 84.7%
Relative inhibition rate (%) of FXI activity (coagulation factor XI; D21): 88.9%
Relative inhibition rate (%) of FXI activity (coagulation factor XI; D28): 89.2%
Relative inhibition rate (%) of FXI activity (coagulation factor XI; D37): 92.6%
Relative inhibition rate (%) of FXI activity (coagulation factor XI; D54): 91.4%
Relative inhibition rate (%) of FXI protein ([3]; D3): 74.4%
Relative inhibition rate (%) of FXI protein ([3]; D7): 93.7%
Relative inhibition rate (%) of FXI protein ([3]; D14): 86.4%
Relative inhibition rate (%) of FXI protein ([3]; D21): 88.0%
Relative inhibition rate (%) of FXI protein ([3]; D28): 84.9%
Relative inhibition rate (%) of FXI protein ([3]; D42): 63.3%
Relative inhibition rate (%) of FXI protein ([3]; D56): 50.4%
Relative inhibition rate (%) of FXI protein ([3]; D70): 21.4%
